Measurements from patent US8519006B2, “Use of sphingosine-1 phosphate (S1P) receptor agonists for the treatment of brain degenerative diseases” (Novartis AG, priority 2003, dated 2013).
Read-outs that look alike come from different tables or passages of the source.

Legend:
human monocytes [1] = experiment: Monocyte chemotaxis toward Aβ (48-blindwell microchemotaxis chamber); format: cell-based
human monocytes [2] = experiment: Monocyte chemotaxis toward Aβ precursor protein (Aβ-PP); format: cell-based
[3] = test system: subjects exhibiting mild to moderate Alzheimer dementia; experiment: Clinical trial, EEG and psychometric tests; format: in vivo, human; conditions: ca. 0.25 to ca. 10 mg/p.o. once or divided 2 or 3×; tests at 60, 120 and 180 minutes
Acute toxicity (LD50) [4] = conditions: rat, in vivo, po
Acute toxicity (LD50) [5] = conditions: monkey, in vivo, po
[6] = monocytes pre-incubated with enzyme blocker, washed, chemotaxis toward Aβ (1 pmol/l), GFX 500 nmol/l, IBMX 10 ng/ml, Tyrphostin-23 10 ng/ml, WTN 10 nmol/l, CTX 1 nmol/l, PTX 1 nmol/l, Medium 1.786 (0.078)
[7] = monocytes pre-incubated with enzyme blocker, washed, chemotaxis toward Aβ-PP (1 pmol/l), GFX 500 nmol/l, IBMX 10 ng/ml, Tyrphostin-23 10 ng/ml, WTN 10 nmol/l, CTX 1 nmol/l, PTX 1 nmol/l, Medium 1.639 (0.076)

## N#CC(C#N)=Cc1ccc(O)c(O)c1 [Tyrphostin-23]
Human monocytes [1]
  Chemotaxis Index Aβ Mean (+/−SEM): 1.435 (0.04)
Human monocytes [2]
  Chemotaxis Index Aβ-PP Mean (+/−SEM): 1.398 (0.07)

## CN(C)CCCn1cc(C2=C(c3c[nH]c4ccccc34)C(=O)NC2=O)c2ccccc21 [GFX]
Human monocytes [1]; [6]
  Chemotaxis Index Aβ Mean (+/−SEM): 1.143 (0.08)
Human monocytes [2]; [7]
  Chemotaxis Index Aβ-PP Mean (+/−SEM): 1.098 (0.10)

## CC(C)Cn1c(=O)n(C)c(=O)c2[nH]cnc21 [IBMX]
Human monocytes [1]; [6]
  Chemotaxis Index Aβ Mean (+/−SEM): 1.234 (0.06)
Human monocytes [2]; [7]
  Chemotaxis Index Aβ-PP Mean (+/−SEM): 1.208 (0.09)

## CCCCCCCCc1ccc(CCC(N)(CO)CO)cc1.Cl [Compound A, 2-amino-2-[2-(4-octylphenyl)ethyl]propane-1,3-diol]
Human monocytes [1]; chemotaxis index, monocytes incubated 20 min with 2 ng/ml, washed, chemotaxis toward Aβ [1 pmol/L], Medium 1.825 (0.14)
  Chemotaxis Mean (+/−SEM): 1.077 (0.18)
[3]
  condition as evidenced by EEG results and psychometric tests compared with placebo: improved condition
Acute toxicity (LD50) [4]
  LD50: > 10 mg/kg
Acute toxicity (LD50) [5]
  LD50: > 10 mg/kg

## COC[C@H]1OC(=O)c2coc3c2[C@@]1(C)C1=C(C3=O)[C@@H]2CCC(=O)[C@@]2(C)C[C@H]1OC(C)=O [WTN]
Human monocytes [1]; [6]
  Chemotaxis Index Aβ Mean (+/−SEM): 1.023 (0.05)
Human monocytes [2]; [7]
  Chemotaxis Index Aβ-PP Mean (+/−SEM): 1.115 (0.08)
